Measured values as given in patent publication US9623016B2, “Antibacterial compounds” (Emergent Virology LLC, priority 2013, dated 2017).
≈ marks a conversion by molar mass, not a printed value.

What was measured:
[1] = test system: Staphylococcus aureus USA300
Experimental: The challenge inoculum included 6.13e4 cfu USA300+3% Hog mucin which causes bacteremia/sepsis within 24-72 h. […] The mice used were 6-8 week old female BALB/c mice in groups of 10. One group of 5 mice was also included to examine the potential toxicity of 3% hog mucin. Endpoint was day 10 post infection, death, or euthanasia Animals displaying severe illness as determined by >30% weight loss, extreme lethargy, or paralysis were euthanized. Observation included daily weight, health checks, and temperatures starting with the initiation of dosing until 10 days post challenge.

S. aureus (USA300) [2] = experiment: Minimum Bactericidal Concentration (MBC); assay type: cell-based
Experimental: (§1) MBC is the lowest concentration of compound required to kill an organism. […] In the case of small colony variants, growth might not occur earlier than 48 hours.

S. aureus = experiment: Minimum Bactericidal Concentration (MBC); assay type: cell-based; conditions: UV-5; S. Aureus NCTC8325-4
Experimental: as §1

S. aureus (8324-5) = experiment: Minimum Bactericidal Concentration (MBC); assay type: cell-based
Experimental: as §1

S. aureus (Col) = experiment: Minimum Bactericidal Concentration (MBC); assay type: cell-based
Experimental: as §1

B. subtilis = experiment: Minimum Bactericidal Concentration (MBC); assay type: cell-based
Experimental: as §1

P. aeruginosa 4858 [3] = experiment: Minimum Bactericidal Concentration (MBC); assay type: cell-based
Experimental: as §1

E. coli K12 = experiment: Disc diffusion; assay type: cell-based
Experimental: (§2) Different concentrations of antimicrobial discs were made by incorporation of defined amount of the compound and were stored in a refrigerator (4° C.). Plates were swabbed in three directions with test bacteria to give uniform growth with 0.5 McFarland inocula. Antimicrobial discs were applied to the plates as soon as possible, but no longer than 15 minutes after inoculation. The plates were incubated at 37° C. for 18 hours. The growth inhibition zones around the disc were measured.

S. aureus USA300 = experiment: Disc diffusion; assay type: cell-based
Experimental: as §2

P. aeruginosa 4961 = experiment: Disc diffusion; assay type: cell-based
Experimental: as §2

P. aeruginosa 4990 = experiment: Disc diffusion; assay type: cell-based
Experimental: as §2

B. subtilus ATCC 6051 = experiment: Disc diffusion; assay type: cell-based
Experimental: as §2

[4] = test system: E. coli In-house WT (SLR-IBT); experiment: Disc diffusion; assay type: cell-based
Experimental: as §2

S. pneumoniae ATCC 6301 = experiment: Disc diffusion; assay type: cell-based
Experimental: as §2

S. aureus Col (MRSA) = experiment: Disc diffusion; assay type: cell-based
Experimental: as §2

P. aeruginosa 4858 [5] = experiment: Disc diffusion; assay type: cell-based
Experimental: as §2

S. aureus 8325-4 = experiment: Disc diffusion; assay type: cell-based
Experimental: as §2

S. aureus (USA300) [6] = experiment: Minimum Inhibitory Concentration (MIC); assay type: cell-based; conditions: for visible growth: Table 3; for growth (OD600): Table 4
Experimental: The MIC assay is a technique used to determine the lowest concentration of a particular antibiotic needed to inhibit visible growth of bacteria. In this method, two fold serial dilutions of the compound were prepared in broth media. An inoculum of overnight bacterial cultures will be prepared in the same broth medium. The serial dilution tubes will be inoculated with 0.025 ml of undiluted over-night culture (1:100), a 1×10-2 dilution (1:10,000), or a 1×10-4 dilution (1:1,000,000) of bacterial suspension. Results were recorded after 24 hour incubation at 35° C. without shaking by measuring OD600. The MIC is determined by the lowest concentration of compound where no growth is visible.

In the case of [N-]=[N+]=Nc1ccc(NCCCCCCN2C[C@H](O)[C@@H](O)[C@H](O)[C@H]2CO)c([N+](=O)[O-])c1 [UV-5, N—(N-{4′-azido-2′-nitrophenyl}-6-aminohexyl)deoxynojirimycin], the “significance of survival increase vs water” value ([1]; 100 mg/kg UV-5 BID) is reported as “not a statistically significant increase in survival”, the survival ([1]; 100 mg/kg UV-5 orally BID for 10 days, from 3 days before IP challenge, water control 30%) is reported as 70% and the “toxicity at the dose/regimen used” value ([1]; 100 mg/kg UV-5 orally BID, mice) is reported as “some toxicity was observed”. For the same compound, the MBC (S. aureus (USA300) [2]; UV-5) was 20000 µg/mL (≈ 47.1 mM), the “growth after re-inoculation on BHI agar” value (S. aureus (USA300) [2]; UV-5 0.16 mg/ml) was “+” and the “growth after re-inoculation on BHI agar” value (S. aureus (USA300) [2]; UV-5 0.3 mg/ml) was “+”. The “growth after re-inoculation on BHI agar” value (S. aureus (USA300) [2]; UV-5 0.62 mg/ml) was “+”, the “growth after re-inoculation on BHI agar” value (S. aureus (USA300) [2]; UV-5 2.5 mg/ml) was “+” and the “growth after re-inoculation on BHI agar” value (S. aureus (USA300) [2]; UV-5 5 mg/ml) was “+”. The “growth after re-inoculation on BHI agar” value (S. aureus (USA300) [2]; UV-5 10 mg/ml) was “+”, the “growth after re-inoculation on BHI agar” value (S. aureus (USA300) [2]; UV-5 20 mg/ml) was “−” and the MBC (S. aureus) was 10000 µg/mL (≈ 23.6 mM). The “growth after re-inoculation on BHI agar” value (S. aureus (8324-5); UV-5 0.16 mg/ml) was “+”, the “growth after re-inoculation on BHI agar” value (S. aureus (8324-5); UV-5 0.3 mg/ml) was “+” and the “growth after re-inoculation on BHI agar” value (S. aureus (8324-5); UV-5 0.62 mg/ml) was “+”. For the same compound, the “growth after re-inoculation on BHI agar” value (S. aureus (8324-5); UV-5 2.5 mg/ml) was “+”, the “growth after re-inoculation on BHI agar” value (S. aureus (8324-5); UV-5 5 mg/ml) was “+” and the “growth after re-inoculation on BHI agar” value (S. aureus (8324-5); UV-5 10 mg/ml) was “−”. For the same compound, the “growth after re-inoculation on BHI agar” value (S. aureus (8324-5); UV-5 20 mg/ml) was “−”, the “growth after re-inoculation on BHI agar” value (S. aureus (Col); UV-5 0.16 mg/ml) was “+” and the “growth after re-inoculation on BHI agar” value (S. aureus (Col); UV-5 0.3 mg/ml) was “+”. For the same compound, the “growth after re-inoculation on BHI agar” value (S. aureus (Col); UV-5 0.62 mg/ml) was “+”, the “growth after re-inoculation on BHI agar” value (S. aureus (Col); UV-5 10 mg/ml) was “−” and the “growth after re-inoculation on BHI agar” value (S. aureus (Col); UV-5 20 mg/ml) was “−”. The MBC (S. aureus (Col); UV-5, S. aureus COL MRSA) was 2500 µg/mL (≈ 5.89 mM), the MBC (B. subtilis; UV-5) was 2500 µg/mL (≈ 5.89 mM) and the “growth after re-inoculation on BHI agar” value (B. subtilis; UV-5 0.16 mg/ml) was “+”. For the same compound, the “growth after re-inoculation on BHI agar” value (B. subtilis; UV-5 0.3 mg/ml) was “+”, the “growth after re-inoculation on BHI agar” value (B. subtilis; UV-5 0.62 mg/ml) was “+” and the “growth after re-inoculation on BHI agar” value (B. subtilis; UV-5 10 mg/ml) was “−”. The “growth after re-inoculation on BHI agar” value (B. subtilis; UV-5 20 mg/ml) was “−”, the MBC (P. aeruginosa 4858 [3]; UV-5) was 5000 µg/mL (≈ 11.8 mM) and the “growth after re-inoculation on BHI agar” value (P. aeruginosa 4858 [3]; UV-5 0.16 mg/ml) was “+”. The “growth after re-inoculation on BHI agar” value (P. aeruginosa 4858 [3]; UV-5 0.3 mg/ml) was “+”, the “growth after re-inoculation on BHI agar” value (P. aeruginosa 4858 [3]; UV-5 0.62 mg/ml) was “+” and the “growth after re-inoculation on BHI agar” value (P. aeruginosa 4858 [3]; UV-5 2.5 mg/ml) was “+”. For the same compound, the “growth after re-inoculation on BHI agar” value (P. aeruginosa 4858 [3]; UV-5 5 mg/ml) was “−”, the “growth after re-inoculation on BHI agar” value (P. aeruginosa 4858 [3]; UV-5 10 mg/ml) was “−” and the “growth after re-inoculation on BHI agar” value (P. aeruginosa 4858 [3]; UV-5 20 mg/ml) was “−”. It also gave an Inhibition zone diameter (E. coli K12; UV-5 160 ug disc) of 12 mm, an Inhibition zone diameter (S. aureus USA300; UV-5 160 ug disc) of 16 mm and an Inhibition zone diameter (P. aeruginosa 4961; UV-5 160 ug disc) of 14 mm. The Inhibition zone diameter (P. aeruginosa 4990; UV-5 160 ug disc) was 6 mm, the Inhibition zone diameter (B. subtilus ATCC 6051; UV-5 160 ug disc) was 18 mm and the Inhibition zone diameter ([4]; UV-5 160 ug disc) was 15 mm. It also gave an Inhibition zone diameter (S. pneumoniae ATCC 6301; UV-5 160 ug disc) of 17 mm, an Inhibition zone diameter (S. aureus Col (MRSA); UV-5 160 ug disc) of 16 mm and an Inhibition zone diameter (P. aeruginosa 4858 [5]; UV-5 160 ug disc) of 6 mm. The Inhibition zone diameter (S. aureus 8325-4; UV-5 160 ug disc) was 16 mm.
For CC[C@H]1OC(=O)[C@H](C)[C@@H](O[C@H]2C[C@@](C)(OC)[C@@H](O)[C@H](C)O2)[C@H](C)[C@@H](O[C@@H]2O[C@H](C)C[C@H](N(C)C)[C@H]2O)[C@](C)(O)C[C@@H](C)C(=O)[C@H](C)[C@@H](O)[C@]1(C)O [Erythromycin, reference compound], the visible growth (S. aureus (USA300) [6]; Erythromycin 0.20 ug/ml) was “+”, the “growth (OD600)” value (S. aureus (USA300) [6]; Erythromycin 0.20 ug/ml) was “+ (+ OD600 <0.05)” and the visible growth (S. aureus (USA300) [6]; Erythromycin 0.39 ug/ml) was “+”. For the same compound, the “growth (OD600)” value (S. aureus (USA300) [6]; Erythromycin 0.39 ug/ml) was “+ (+ OD600 <0.05)”, the visible growth (S. aureus (USA300) [6]; Erythromycin 0.78 ug/ml) was “+” and the “growth (OD600)” value (S. aureus (USA300) [6]; Erythromycin 0.78 ug/ml) was “+ (+ OD600 <0.05)”. The visible growth (S. aureus (USA300) [6]; Erythromycin 1.56 ug/ml) was “+”, the “growth (OD600)” value (S. aureus (USA300) [6]; Erythromycin 1.56 ug/ml) was “+ (+ OD600 <0.05)” and the visible growth (S. aureus (USA300) [6]; Erythromycin 3.13 ug/ml) was “+”. For the same compound, the “growth (OD600)” value (S. aureus (USA300) [6]; Erythromycin 3.13 ug/ml) was “+ (+ OD600 <0.05)”, the visible growth (S. aureus (USA300) [6]; Erythromycin 6.25 ug/ml) was “+” and the “growth (OD600)” value (S. aureus (USA300) [6]; Erythromycin 6.25 ug/ml) was “+ (+ OD600 <0.05)”. For the same compound, the visible growth (S. aureus (USA300) [6]; Erythromycin 25.00 ug/ml) was “−”, the “growth (OD600)” value (S. aureus (USA300) [6]; Erythromycin 25.00 ug/ml) was “− (− OD600 >0.05)” and the visible growth (S. aureus (USA300) [6]; Erythromycin 50 ug/ml) was “−”. The “growth (OD600)” value (S. aureus (USA300) [6]; Erythromycin 50 ug/ml) was “− (− OD600 >0.05)”, the visible growth (S. aureus (USA300) [6]; Erythromycin 100 ug/ml) was “−” and the “growth (OD600)” value (S. aureus (USA300) [6]; Erythromycin 100 ug/ml) was “− (− OD600 >0.05)”. It also gave a zone of inhibition at 10 µg/disc (E. coli K12; Escherichia coli, K12, read-out: Inhibition zone diameter) of 20 mm, a zone of inhibition at 10 µg/disc (S. aureus USA300; Staphylococcus aureus, USA300, read-out: Inhibition zone diameter) of 15 mm and a zone of inhibition at 10 µg/disc (P. aeruginosa 4961; Pseudomonas aeruginosa, 4961, read-out: Inhibition zone diameter) of 18 mm. It also gave a zone of inhibition at 10 µg/disc (P. aeruginosa 4990; Pseudomonas aeruginosa, 4990, read-out: Inhibition zone diameter) of 20 mm, a zone of inhibition at 10 µg/disc (B. subtilus ATCC 6051; read-out: Inhibition zone diameter) of 35 mm and a zone of inhibition at 10 µg/disc ([4]; Escherichia coli, read-out: Inhibition zone diameter) of 15 mm. The zone of inhibition at 10 µg/disc (S. pneumoniae ATCC 6301; Streptococcus pneumoniae, ATCC6301, read-out: Inhibition zone diameter) was 38 mm, the zone of inhibition at 10 µg/disc (S. aureus Col (MRSA); Staphylococcus aureus, MRSA, read-out: Inhibition zone diameter) was 42 mm and the zone of inhibition at 10 µg/disc (P. aeruginosa 4858 [5]; Pseudomonas aeruginosa, 4858, read-out: Inhibition zone diameter) was 8 mm. It also gave a zone of inhibition at 10 µg/disc (S. aureus 8325-4; Staphylococcus aureus, 83254, read-out: Inhibition zone diameter) of 35 mm.
